According to the NIST ThermoML archive (doi:10.1021/je060032n):
Numbers after ± are expanded uncertainties.

Assay: xn = mol fraction of the nth substance listed
Conditions: 101 kPa, Liquid; for viscosity: Capillary tube (Ostwald / Ubbelohde) method

NCCNCCO [N-(2-aminoethyl)ethanolamine] + O
viscosity (298.15 K, x1 = 0.05): 2.45 ± 0.08 mPa·s | viscosity (298.15 K, x1 = 0.07): 3.87 ± 0.12 mPa·s | viscosity (298.15 K, x1 = 0.0999): 6.76 ± 0.22 mPa·s | viscosity (298.15 K, x1 = 0.1992): 30 ± 0.9 mPa·s | viscosity (298.15 K, x1 = 0.3): 70.9 ± 2.2 mPa·s | viscosity (298.15 K, x1 = 0.3997): 104 ± 3 mPa·s | viscosity (298.15 K, x1 = 0.4991): 121 ± 4 mPa·s | viscosity (298.15 K, x1 = 0.599): 124 ± 4 mPa·s | viscosity (298.15 K, x1 = 0.6991): 121 ± 4 mPa·s | viscosity (298.15 K, x1 = 0.7997): 116 ± 4 mPa·s | viscosity (298.15 K, x1 = 0.9002): 109 ± 4 mPa·s | viscosity (298.15 K, x1 = 1): 98.6 ± 3.2 mPa·s | mass density (298.15 K, x1 = 0.05): 1015.65 ± 0.25 kg/m3 | mass density (298.15 K, x1 = 0.07): 1022.28 ± 0.25 kg/m3 | mass density (298.15 K, x1 = 0.0999): 1030.85 ± 0.25 kg/m3 | mass density (298.15 K, x1 = 0.1992): 1047.37 ± 0.28 kg/m3 | mass density (298.15 K, x1 = 0.3): 1050.66 ± 0.31 kg/m3 | mass density (298.15 K, x1 = 0.3997): 1048.18 ± 0.35 kg/m3 | mass density (298.15 K, x1 = 0.4991): 1044.05 ± 0.38 kg/m3 | mass density (298.15 K, x1 = 0.599): 1039.62 ± 0.41 kg/m3 | mass density (298.15 K, x1 = 0.6991): 1035.48 ± 0.44 kg/m3 | mass density (298.15 K, x1 = 0.7997): 1031.83 ± 0.48 kg/m3 | mass density (298.15 K, x1 = 0.9002): 1028.28 ± 0.51 kg/m3 | mass density (298.15 K, x1 = 1): 1025.28 ± 0.55 kg/m3 | viscosity (303.15 K, x1 = 0.05): 2.16 ± 0.07 mPa·s | viscosity (303.15 K, x1 = 0.07): 3.24 ± 0.1 mPa·s | viscosity (303.15 K, x1 = 0.0999): 5.5 ± 0.18 mPa·s | viscosity (303.15 K, x1 = 0.1992): 22.6 ± 0.7 mPa·s | viscosity (303.15 K, x1 = 0.3): 50.4 ± 1.5 mPa·s | viscosity (303.15 K, x1 = 0.3997): 72.8 ± 2.2 mPa·s | viscosity (303.15 K, x1 = 0.4991): 83.9 ± 2.6 mPa·s | viscosity (303.15 K, x1 = 0.599): 87 ± 2.7 mPa·s | viscosity (303.15 K, x1 = 0.6991): 84.8 ± 2.7 mPa·s | viscosity (303.15 K, x1 = 0.7997): 82.5 ± 2.6 mPa·s | viscosity (303.15 K, x1 = 0.9002): 78.1 ± 2.4 mPa·s | viscosity (303.15 K, x1 = 1): 70.5 ± 2.2 mPa·s | mass density (303.15 K, x1 = 0.05): 1013.65 ± 0.25 kg/m3 | mass density (303.15 K, x1 = 0.07): 1020.01 ± 0.25 kg/m3 | mass density (303.15 K, x1 = 0.0999): 1028.24 ± 0.24 kg/m3 | mass density (303.15 K, x1 = 0.1992): 1044.02 ± 0.28 kg/m3 | mass density (303.15 K, x1 = 0.3): 1047.05 ± 0.31 kg/m3 | mass density (303.15 K, x1 = 0.3997): 1044.5 ± 0.34 kg/m3 | mass density (303.15 K, x1 = 0.4991): 1040.33 ± 0.37 kg/m3 | mass density (303.15 K, x1 = 0.599): 1035.89 ± 0.4 kg/m3 | mass density (303.15 K, x1 = 0.6991): 1031.74 ± 0.44 kg/m3 | mass density (303.15 K, x1 = 0.7997): 1028.11 ± 0.47 kg/m3 | mass density (303.15 K, x1 = 0.9002): 1024.57 ± 0.51 kg/m3 | mass density (303.15 K, x1 = 1): 1021.53 ± 0.55 kg/m3 | viscosity (313.15 K, x1 = 0.05): 1.63 ± 0.05 mPa·s | viscosity (313.15 K, x1 = 0.07): 2.29 ± 0.07 mPa·s | viscosity (313.15 K, x1 = 0.0999): 3.83 ± 0.12 mPa·s | viscosity (313.15 K, x1 = 0.1992): 13.5 ± 0.4 mPa·s | viscosity (313.15 K, x1 = 0.3): 27.8 ± 0.8 mPa·s | viscosity (313.15 K, x1 = 0.3997): 38.9 ± 1.2 mPa·s | viscosity (313.15 K, x1 = 0.4991): 44.8 ± 1.4 mPa·s | viscosity (313.15 K, x1 = 0.599): 46.5 ± 1.4 mPa·s | viscosity (313.15 K, x1 = 0.6991): 45.7 ± 1.4 mPa·s | viscosity (313.15 K, x1 = 0.7997): 44.8 ± 1.4 mPa·s | viscosity (313.15 K, x1 = 0.9002): 44.4 ± 1.4 mPa·s | viscosity (313.15 K, x1 = 1): 39.4 ± 1.2 mPa·s | mass density (313.15 K, x1 = 0.05): 1009.22 ± 0.24 kg/m3 | mass density (313.15 K, x1 = 0.07): 1015.13 ± 0.24 kg/m3 | mass density (313.15 K, x1 = 0.0999): 1022.7 ± 0.24 kg/m3 | mass density (313.15 K, x1 = 0.1992): 1037.13 ± 0.27 kg/m3 | mass density (313.15 K, x1 = 0.3): 1039.7 ± 0.3 kg/m3 | mass density (313.15 K, x1 = 0.3997): 1037.01 ± 0.34 kg/m3 | mass density (313.15 K, x1 = 0.4991): 1032.79 ± 0.37 kg/m3 | mass density (313.15 K, x1 = 0.599): 1028.36 ± 0.4 kg/m3 | mass density (313.15 K, x1 = 0.6991): 1024.21 ± 0.43 kg/m3 | mass density (313.15 K, x1 = 0.7997): 1020.57 ± 0.47 kg/m3 | mass density (313.15 K, x1 = 0.9002): 1017.06 ± 0.5 kg/m3 | mass density (313.15 K, x1 = 1): 1014.02 ± 0.54 kg/m3 | viscosity (323.15 K, x1 = 0.05): 1.26 ± 0.04 mPa·s | viscosity (323.15 K, x1 = 0.07): 1.75 ± 0.06 mPa·s | viscosity (323.15 K, x1 = 0.0999): 2.8 ± 0.09 mPa·s | viscosity (323.15 K, x1 = 0.1992): 8.7 ± 0.3 mPa·s | viscosity (323.15 K, x1 = 0.3): 16.5 ± 0.5 mPa·s | viscosity (323.15 K, x1 = 0.3997): 22.5 ± 0.7 mPa·s | viscosity (323.15 K, x1 = 0.4991): 25.6 ± 0.8 mPa·s | viscosity (323.15 K, x1 = 0.599): 26.7 ± 0.8 mPa·s | viscosity (323.15 K, x1 = 0.6991): 26.4 ± 0.8 mPa·s | viscosity (323.15 K, x1 = 0.7997): 26 ± 0.8 mPa·s | viscosity (323.15 K, x1 = 0.9002): 26 ± 0.8 mPa·s | viscosity (323.15 K, x1 = 1): 23.4 ± 0.7 mPa·s | mass density (323.15 K, x1 = 0.05): 1004.24 ± 0.23 kg/m3 | mass density (323.15 K, x1 = 0.07): 1009.76 ± 0.23 kg/m3 | mass density (323.15 K, x1 = 0.0999): 1016.8 ± 0.23 kg/m3 | mass density (323.15 K, x1 = 0.1992): 1030.03 ± 0.27 kg/m3 | mass density (323.15 K, x1 = 0.3): 1032.15 ± 0.3 kg/m3 | mass density (323.15 K, x1 = 0.3997): 1029.37 ± 0.33 kg/m3 | mass density (323.15 K, x1 = 0.4991): 1025.13 ± 0.36 kg/m3 | mass density (323.15 K, x1 = 0.599): 1020.71 ± 0.39 kg/m3 | mass density (323.15 K, x1 = 0.6991): 1016.59 ± 0.43 kg/m3 | mass density (323.15 K, x1 = 0.7997): 1012.96 ± 0.46 kg/m3 | mass density (323.15 K, x1 = 0.9002): 1009.48 ± 0.5 kg/m3 | mass density (323.15 K, x1 = 1): 1006.44 ± 0.53 kg/m3 | viscosity (333.15 K, x1 = 0.05): 1.01 ± 0.03 mPa·s | viscosity (333.15 K, x1 = 0.07): 1.38 ± 0.04 mPa·s | viscosity (333.15 K, x1 = 0.0999): 2.05 ± 0.06 mPa·s | viscosity (333.15 K, x1 = 0.1992): 5.9 ± 0.2 mPa·s | viscosity (333.15 K, x1 = 0.3): 10.5 ± 0.3 mPa·s | viscosity (333.15 K, x1 = 0.3997): 13.8 ± 0.4 mPa·s | viscosity (333.15 K, x1 = 0.4991): 15.8 ± 0.5 mPa·s | viscosity (333.15 K, x1 = 0.599): 16.5 ± 0.5 mPa·s | viscosity (333.15 K, x1 = 0.6991): 16.5 ± 0.5 mPa·s | viscosity (333.15 K, x1 = 0.7997): 16.4 ± 0.5 mPa·s | viscosity (333.15 K, x1 = 0.9002): 16.5 ± 0.5 mPa·s | viscosity (333.15 K, x1 = 1): 14.8 ± 0.5 mPa·s | mass density (333.15 K, x1 = 0.05): 998.75 ± 0.23 kg/m3 | mass density (333.15 K, x1 = 0.07): 1003.89 ± 0.22 kg/m3 | mass density (333.15 K, x1 = 0.0999): 1010.53 ± 0.22 kg/m3 | mass density (333.15 K, x1 = 0.1992): 1022.69 ± 0.26 kg/m3 | mass density (333.15 K, x1 = 0.3): 1024.44 ± 0.29 kg/m3 | mass density (333.15 K, x1 = 0.3997): 1021.57 ± 0.32 kg/m3 | mass density (333.15 K, x1 = 0.4991): 1017.35 ± 0.35 kg/m3 | mass density (333.15 K, x1 = 0.599): 1012.96 ± 0.39 kg/m3 | mass density (333.15 K, x1 = 0.6991): 1008.88 ± 0.42 kg/m3 | mass density (333.15 K, x1 = 0.7997): 1005.3 ± 0.46 kg/m3 | mass density (333.15 K, x1 = 0.9002): 1001.84 ± 0.49 kg/m3 | mass density (333.15 K, x1 = 1): 998.83 ± 0.53 kg/m3 | viscosity (343.15 K, x1 = 0.05): 0.839 ± 0.026 mPa·s | viscosity (343.15 K, x1 = 0.07): 1.11 ± 0.03 mPa·s | viscosity (343.15 K, x1 = 0.0999): 1.6 ± 0.05 mPa·s | viscosity (343.15 K, x1 = 0.1992): 4.2 ± 0.1 mPa·s | viscosity (343.15 K, x1 = 0.3): 7 ± 0.2 mPa·s | viscosity (343.15 K, x1 = 0.3997): 9.1 ± 0.3 mPa·s | viscosity (343.15 K, x1 = 0.4991): 10.3 ± 0.3 mPa·s | viscosity (343.15 K, x1 = 0.599): 10.8 ± 0.3 mPa·s | viscosity (343.15 K, x1 = 0.6991): 10.8 ± 0.3 mPa·s | viscosity (343.15 K, x1 = 0.7997): 10.8 ± 0.3 mPa·s | viscosity (343.15 K, x1 = 0.9002): 10.7 ± 0.3 mPa·s | viscosity (343.15 K, x1 = 1): 10.1 ± 0.3 mPa·s | mass density (343.15 K, x1 = 0.05): 992.77 ± 0.23 kg/m3 | mass density (343.15 K, x1 = 0.07): 997.34 ± 0.22 kg/m3 | mass density (343.15 K, x1 = 0.0999): 1003.89 ± 0.22 kg/m3 | mass density (343.15 K, x1 = 0.1992): 1015.09 ± 0.26 kg/m3 | mass density (343.15 K, x1 = 0.3): 1016.53 ± 0.29 kg/m3 | mass density (343.15 K, x1 = 0.3997): 1013.6 ± 0.32 kg/m3 | mass density (343.15 K, x1 = 0.4991): 1009.42 ± 0.35 kg/m3 | mass density (343.15 K, x1 = 0.599): 1005.1 ± 0.38 kg/m3 | mass density (343.15 K, x1 = 0.6991): 1001.06 ± 0.41 kg/m3 | mass density (343.15 K, x1 = 0.7997): 997.54 ± 0.45 kg/m3 | mass density (343.15 K, x1 = 0.9002): 994.11 ± 0.49 kg/m3 | mass density (343.15 K, x1 = 1): 991.15 ± 0.53 kg/m3
